The subject of assay [1] is NP7 (DNA, aptamer) ATGCGGATCCCGCGCGGCCGGCCAGTGCGCGAAGCTTGCGC
Kind of assay: AuNP colorimetric aggregation assay. The following applies: NaCl added to aggregate AuNPs (10 μL, printed 850 nM), aptamer 4 μM.

The test system is the same in assay [2]. Kind of assay: circular dichroism. The settings on record: 137 mM NaCl, 2.7 mM KCl; PBS pH 7.4, 25 °C; aptamer 2 μM; 4-n-NP 0, 100, 1000 nM; qualitative change near 250 nm. (Circular dichroism is the unequal absorption of left and right circularly polarised light.)

Structures are written as SMILES.

Turning to `CC(C)(c1ccc(O)cc1)c1ccc(O)cc1`, the binding entry in assay [1] (bisphenol A same amount as nonylphenol (200 nM stated)) is reported as “weak”.
With `CC1(C)S[C@@H]2[C@H](NC(=O)Cc3ccccc3)C(=O)N2[C@H]1C(=O)O`, the binding entry in assay [1] (penicillin G same amount as nonylphenol (200 nM stated)) is given as “no”.
Consider `CCCCC(CC)COC(=O)c1ccccc1C(=O)OCC(CC)CCCC` (centres unmarked), for which, in assay [1] (DEHP same amount as nonylphenol (200 nM stated)), the binding result is “no”.
As to `CCCCCCCCCc1ccc(O)cc1`, the binding entry in assay [2] is listed as “yes”.
Turning to `Oc1ccccc1`, in assay [1] (phenol same amount as nonylphenol (200 nM stated)), the binding result is given as “no”.

Source of the values: publication PMC6981960 (2019).
